Test results as given in US20040266784A1, “Calcium channel inhibitors comprising benzhydril spaced from piperazine” (priority 1998, published 2004).
Where two headings read alike, the source gives them in different places.

What was measured:
[1] = biological target: T1, human α1G subunits (T-type channels) (Homo sapiens, UniProt O43497); experiment: Block of α1G T-type channels, patch clamp in HEK cell lines; format: cell-based
T1 construct: expressed in transfected cells
Method: Standard patch-clamp techniques were employed to identify blockers of T-type currents. Briefly, previously described HEK cell lines stably expressing human α1G subunits were used for all the recordings (passage #: 4-20, 37° C., 5% CO2). To obtain T-type currents, plastic dishes containing semi-confluent cells were positioned on the stage of a ZEISS AXIOVERT S100 microscope after replacing the culture medium with external solution (see below). Whole-cell patches were obtained using pipettes (borosilicate glass with filament, O.D.: 1.5 mm, I.D.: 0.86 mm, 10 cm length), fabricated on a SUTTER P-97 puller with resistance values of ˜5 MΩ (see below for internal medium).
Test compounds were dissolved in external solution, 0.1-0.01% DMSO. After ˜10 min rest, they were applied by gravity close to the cell using a WPI microfil tubing. The “non-inactivating” pre-pulse was used to examine the resting block of a compound. The “inactivating” protocol was employed to study voltage-dependent block. However, the initial data were obtained using the non-inactivating protocol.

[2] = biological target: T2, rat N-type channels (α1B+α2δ+β1b subunits) (Rattus norvegicus, UniProt Q02294); experiment: Whole cell patch clamp, N-type calcium channel block in HEK 293 cells; format: cell-based; settings: Tested at 0.1 Hz, 5 mM Ba2+
T2 construct: expressed in transfected cells
T2 sequence (Q02294 whole entry): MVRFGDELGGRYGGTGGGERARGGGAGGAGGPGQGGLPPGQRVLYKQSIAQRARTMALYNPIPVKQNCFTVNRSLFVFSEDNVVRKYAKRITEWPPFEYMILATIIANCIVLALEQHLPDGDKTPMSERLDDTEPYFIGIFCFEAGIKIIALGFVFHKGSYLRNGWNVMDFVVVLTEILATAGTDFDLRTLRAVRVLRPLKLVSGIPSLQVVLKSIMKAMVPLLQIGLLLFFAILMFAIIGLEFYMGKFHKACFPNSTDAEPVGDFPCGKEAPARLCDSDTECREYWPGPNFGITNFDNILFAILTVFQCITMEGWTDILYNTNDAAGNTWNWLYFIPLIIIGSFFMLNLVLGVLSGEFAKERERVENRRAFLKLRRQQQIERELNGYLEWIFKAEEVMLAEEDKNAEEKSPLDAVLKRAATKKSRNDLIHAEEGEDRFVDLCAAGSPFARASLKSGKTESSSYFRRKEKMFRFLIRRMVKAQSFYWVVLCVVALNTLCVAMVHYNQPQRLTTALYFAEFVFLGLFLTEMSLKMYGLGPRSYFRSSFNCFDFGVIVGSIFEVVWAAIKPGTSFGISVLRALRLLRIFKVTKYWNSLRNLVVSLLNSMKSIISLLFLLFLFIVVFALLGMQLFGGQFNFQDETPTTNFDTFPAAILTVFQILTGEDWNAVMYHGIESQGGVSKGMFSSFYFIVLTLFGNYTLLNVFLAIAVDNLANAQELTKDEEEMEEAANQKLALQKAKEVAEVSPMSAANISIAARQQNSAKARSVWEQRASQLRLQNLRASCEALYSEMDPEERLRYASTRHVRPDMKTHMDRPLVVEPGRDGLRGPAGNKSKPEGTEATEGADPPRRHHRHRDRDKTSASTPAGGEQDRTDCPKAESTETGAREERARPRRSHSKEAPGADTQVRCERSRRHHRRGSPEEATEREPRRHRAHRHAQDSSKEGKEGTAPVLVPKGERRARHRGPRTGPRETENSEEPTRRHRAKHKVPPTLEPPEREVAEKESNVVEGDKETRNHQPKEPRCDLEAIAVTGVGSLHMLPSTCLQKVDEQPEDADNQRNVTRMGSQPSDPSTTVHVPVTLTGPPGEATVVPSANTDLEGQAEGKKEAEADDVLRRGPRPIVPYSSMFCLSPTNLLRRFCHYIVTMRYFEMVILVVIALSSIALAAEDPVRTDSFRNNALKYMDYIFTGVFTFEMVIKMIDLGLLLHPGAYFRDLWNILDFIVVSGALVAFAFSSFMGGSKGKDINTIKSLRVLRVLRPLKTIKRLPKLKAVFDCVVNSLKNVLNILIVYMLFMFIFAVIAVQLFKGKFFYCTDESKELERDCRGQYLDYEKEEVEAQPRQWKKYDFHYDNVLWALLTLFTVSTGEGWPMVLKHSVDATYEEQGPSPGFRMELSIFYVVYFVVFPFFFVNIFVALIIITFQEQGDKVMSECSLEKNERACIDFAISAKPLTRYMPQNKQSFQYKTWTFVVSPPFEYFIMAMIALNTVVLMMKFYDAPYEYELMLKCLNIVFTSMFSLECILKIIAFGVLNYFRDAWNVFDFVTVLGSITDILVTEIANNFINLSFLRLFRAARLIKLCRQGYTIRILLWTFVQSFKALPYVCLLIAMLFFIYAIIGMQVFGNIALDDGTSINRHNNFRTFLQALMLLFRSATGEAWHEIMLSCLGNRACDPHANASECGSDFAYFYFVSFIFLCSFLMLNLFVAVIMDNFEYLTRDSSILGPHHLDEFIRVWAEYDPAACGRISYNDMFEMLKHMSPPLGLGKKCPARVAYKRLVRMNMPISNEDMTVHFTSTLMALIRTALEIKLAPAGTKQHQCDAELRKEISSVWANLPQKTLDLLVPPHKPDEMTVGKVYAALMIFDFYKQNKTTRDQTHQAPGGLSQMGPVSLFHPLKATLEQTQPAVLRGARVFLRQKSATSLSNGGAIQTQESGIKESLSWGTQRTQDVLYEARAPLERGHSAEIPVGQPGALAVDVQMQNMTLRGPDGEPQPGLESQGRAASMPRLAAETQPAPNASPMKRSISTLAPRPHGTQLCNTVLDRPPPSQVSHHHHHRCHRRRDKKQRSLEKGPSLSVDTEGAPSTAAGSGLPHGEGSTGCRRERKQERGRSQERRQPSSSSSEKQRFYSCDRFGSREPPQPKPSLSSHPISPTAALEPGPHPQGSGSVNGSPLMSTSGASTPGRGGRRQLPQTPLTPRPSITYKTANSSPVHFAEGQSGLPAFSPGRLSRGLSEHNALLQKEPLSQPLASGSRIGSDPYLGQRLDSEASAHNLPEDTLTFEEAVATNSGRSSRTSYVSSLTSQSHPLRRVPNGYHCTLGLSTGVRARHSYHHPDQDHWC
T2 sequence (P54290 25-944 partner limits assumed): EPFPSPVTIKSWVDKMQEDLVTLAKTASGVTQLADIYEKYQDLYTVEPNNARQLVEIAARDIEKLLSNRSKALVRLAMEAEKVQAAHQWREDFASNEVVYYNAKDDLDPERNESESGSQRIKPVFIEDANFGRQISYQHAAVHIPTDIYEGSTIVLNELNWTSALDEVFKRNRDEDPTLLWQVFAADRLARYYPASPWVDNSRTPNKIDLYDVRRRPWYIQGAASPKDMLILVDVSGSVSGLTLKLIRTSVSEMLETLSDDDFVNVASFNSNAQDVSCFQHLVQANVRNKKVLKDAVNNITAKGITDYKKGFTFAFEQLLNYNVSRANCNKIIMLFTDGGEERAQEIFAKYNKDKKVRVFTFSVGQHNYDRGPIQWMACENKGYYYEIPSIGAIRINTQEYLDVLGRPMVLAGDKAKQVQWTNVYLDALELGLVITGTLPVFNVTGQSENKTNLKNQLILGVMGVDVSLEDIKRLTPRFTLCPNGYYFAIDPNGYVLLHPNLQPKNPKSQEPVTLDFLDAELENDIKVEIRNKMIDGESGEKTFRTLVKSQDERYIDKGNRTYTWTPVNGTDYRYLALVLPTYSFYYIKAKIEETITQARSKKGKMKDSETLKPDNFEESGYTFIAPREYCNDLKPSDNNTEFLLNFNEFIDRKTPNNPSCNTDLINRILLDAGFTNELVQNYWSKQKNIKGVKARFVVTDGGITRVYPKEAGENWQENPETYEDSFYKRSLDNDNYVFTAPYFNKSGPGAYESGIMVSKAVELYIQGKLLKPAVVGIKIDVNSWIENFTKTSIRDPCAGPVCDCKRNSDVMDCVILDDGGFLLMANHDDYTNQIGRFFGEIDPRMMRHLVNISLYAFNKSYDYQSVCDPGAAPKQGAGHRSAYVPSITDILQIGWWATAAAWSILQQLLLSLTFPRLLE
T2 sequence (P54290 945-1091 partner limits assumed): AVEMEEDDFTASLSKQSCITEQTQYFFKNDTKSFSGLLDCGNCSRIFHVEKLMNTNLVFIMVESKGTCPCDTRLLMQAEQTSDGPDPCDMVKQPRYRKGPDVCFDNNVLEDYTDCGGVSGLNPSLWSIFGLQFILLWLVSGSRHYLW
T2 sequence (P54283 whole entry partner): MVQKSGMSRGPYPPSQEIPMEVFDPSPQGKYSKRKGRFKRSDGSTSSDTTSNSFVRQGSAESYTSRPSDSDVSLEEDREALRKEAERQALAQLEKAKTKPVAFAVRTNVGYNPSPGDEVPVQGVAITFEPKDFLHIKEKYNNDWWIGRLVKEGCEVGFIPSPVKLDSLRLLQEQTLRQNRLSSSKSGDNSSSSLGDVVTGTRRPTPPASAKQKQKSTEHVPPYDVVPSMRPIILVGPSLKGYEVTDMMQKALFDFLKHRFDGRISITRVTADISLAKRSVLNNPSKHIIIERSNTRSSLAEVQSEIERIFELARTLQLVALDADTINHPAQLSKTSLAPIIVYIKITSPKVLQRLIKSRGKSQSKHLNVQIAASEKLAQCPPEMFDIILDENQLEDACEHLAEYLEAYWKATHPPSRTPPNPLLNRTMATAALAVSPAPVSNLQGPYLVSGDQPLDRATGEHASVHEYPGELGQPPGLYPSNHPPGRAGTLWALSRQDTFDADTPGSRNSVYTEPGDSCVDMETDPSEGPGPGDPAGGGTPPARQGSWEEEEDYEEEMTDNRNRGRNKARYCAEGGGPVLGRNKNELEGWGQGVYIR

[3] = biological target: T2, rat N-type channels (α1B+α2δ+β1b subunits); experiment: as above; format: cell-based; settings: for specificity for N-type channels as compared to L and P/Q-type: FIGS. 2, 3 and 4
Method: (§1) Antagonist activity was measured using whole cell patch recordings on human embryonic kidney cells either stably or transiently expressing rat N-type channels (α1B+[…]+β1b subunits) with 5 mM barium as a charge carrier. Alternatively, cells either stably or transiently expressing rat L-type channels (α1C+α2δ+β1b cDNA subunits) and P/Q-type channels (α1A+α2δ+β1b cDNA subunits)
HEK 293 cells were transfected by a standard calcium-phosphate-DNA coprecipitation method using the rat α1B+β1b+α2δ N-type calcium channel subunits in a vertebrate expression vector (for example, see Current Protocols in Molecular Biology).
(§2) After an incubation period of from 24 to 72 hrs the culture medium was removed and replaced with external recording solution (see below). Whole cell patch clamp experiments were performed using an Axopatch 200B amplifier (Axon Instruments, Burlingame, Calif.) linked to an IBM compatible personal computer equipped with pCLAMP software. […] Current data shown were elicited by a train of 100 ms test pulses at 0.066 Hz from −100 mV and/or −80 mV to various potentials (min. −20 mV, max. +30 mV). Drugs were perfused directly into the vicinity of the cells using a microperfusion system.
Normalized dose-response curves were fit (Sigmaplot 4.0, SPSS Inc., Chicago, Ill.) by the Hill equation to determine IC50 values. Steady-state inactivation curves were plotted as the normalized test pulse amplitude following 5 s inactivating prepulses at +10 mV increments.
Alternatively, N-type calcium channels (α1B+α2δ+β1b cDNA subunits), L-type channels (α1C+α2δ+β1b cDNA subunits) and P/Q-type channels (α1A+α2δ+β1b cDNA subunits) were transiently expressed in HEK 293 cells. Briefly, cells were cultured in Dulbecco's modified eagle medium (DMEM) supplemented with 10% fetal bovine serum, 200 U/ml penicillin and 0.2 mg/ml streptomycin at 37° C. with 5% CO2. […] At 12 hours the medium was replaced and the cells transiently transfected using a standard calcium phosphate protocol and the appropriate calcium channel cDNAs. Fresh DMEM was supplied and the cells transferred to 28° C./5% CO2.
Whole cell patch clamp experiments were performed using an Axopatch 200B amplifier (Axon Instruments, Burlingame, Calif.) linked to a personal computer equipped with pCLAMP software. […] Currents were typically elicited from a holding potential of −80 mV to +10 mV using Clampex software (Axon Instruments). […] The compounds were then applied during the low frequency pulse trains for two to three minutes to assess tonic block, and subsequently the pulse frequency was increased to 0.2 Hz to assess frequency dependent block. Data were analyzed using Clampfit (Axon Instruments) and SigmaPlot 4.0 (Jandel Scientific).

[4] = biological target: T3, P/Q-type channels (α1A+α2δ+β1b cDNA subunits) (Rattus norvegicus, UniProt P54282); experiment: Whole cell patch clamp, P/Q-type calcium channel block in HEK 293 cells; format: cell-based; settings: Tested at 0.1 Hz, 5 mM Ba2+
T3 construct: expressed in transfected cells
Method: as §1, §2
(§3) Normalized dose-response curves were fit (Sigmaplot 4.0, SPSS Inc., Chicago, Ill.) by the Hill equation to determine IC50 values. […]
(§4) Whole cell patch clamp experiments were performed using an Axopatch 200B amplifier (Axon Instruments, Burlingame, Calif.) linked to a personal computer equipped with pCLAMP software. […] Data were analyzed using Clampfit (Axon Instruments) and SigmaPlot 4.0 (Jandel Scientific).

[5] = biological target: T4, rat L-type channels (α1C+α2δ+β1b cDNA subunits) (Rattus norvegicus, UniProt P22002); experiment: Whole cell patch clamp, L-type calcium channel block in HEK 293 cells; format: cell-based; settings: Tested at 0.1 Hz, 5 mM Ba2+
T4 construct: expressed in transfected cells
Method: as §1, §2, §3, §4

rat formalin model = experiment: Formalin-induced pain model; format: in vivo; settings: 30 mg/kg IP, saline control=100%
Method: The effects of intrathecally delivered compounds of the invention on the rat formalin model were measured. The compounds were reconstituted to stock solutions of approximately 10 mg/ml in propylene glycol.
The following study groups were used, with test compound, vehicle control (propylene glycol) and saline delivered intraperitoneally (IP):
Prior to initiation of drug delivery baseline behavioral and testing data were taken.
On the morning of testing, a small metal band (0.5 g) was loosely placed around the right hind paw. The rat was placed in a cylindrical Plexiglas chamber for adaptation a minimum of 30 minutes. Test compound or vehicle control was administered 10 minutes prior to formalin injection (50 μl of 5% formalin) into the dorsal surface of the right hindpaw of the rat. The animal was then placed into the chamber of the automated formalin apparatus where movement of the formalin injected paw was monitored and the number of paw flinches tallied by minute over the next 60 minutes.

[6] = 80 mV, read-out: Block of α1G T-type Channels IC50, 80 mV
[7] = 100 mV, non-inactivating protocol, read-out: Block of α1G T-type Channels IC50, 100 mV
[8] = 0.067 Hz, read-out: IC50 for N-type Calcium Channel Block (0.067 Hz)
[9] = 0.2 Hz, read-out: IC50 for N-type Calcium Channel Block (0.2 Hz)

IC50 [1, 6] [µM]	IC50 [1, 7] [µM]	IC50 [2] [µM]	IC50 [3, 8] [µM]	IC50 [3, 9] [µM]	specificity for N-type channels as compared to L and P/Q-type [3]	IC50 [4] [µM]	IC50 [5] [µM]	Compound	Maximum Possible Effect±SEM, Phase I (rat formalin model; Phase I) [%]	Maximum Possible Effect±SEM, Phase II (rat formalin model; Phase II) [%]	Maximum Possible Effect±SEM, Phase IIA (rat formalin model; Phase IIA) [%]
0.047	0.202	0.136	0.24	0.13	selectively block N-type channels	0.92	> 100	CCOC(=O)C1CN(Cc2cc(OC)c(OC)c(OC)c2)CCN1CCCCCC(c1ccc(F)cc1)c1ccc(F)cc1 (stereo not shown) [Compound P36, 1-[6,6-bis-(4-fluoro-phenyl)-hexyl]-4-(3,4,5,-trimethoxy-benzyl)-piperazine-2-carboxylic acid ethyl ester]	–	–	–
0.27	0.579	0.061	0.06	0.013	selectively block N-type channels	1.66	144	COc1c(C(C)(C)C)cc(C(=O)N2CCN(C(=O)CCCCC(c3ccc(F)cc3)c3ccc(F)cc3)C[C@@H]2C)cc1C(C)(C)C [Compound P104]	79 ± 9	61 ± 9	50 ± 12
